Results: patent US10968212B2 (ACCUTAR BIOTECHNOLOGY INC., priority 2016, dated 2021)

Legend:
MCF-7 tumors = assay: Tumor growth inhibition in MCF-7 breast cancer-derived mouse xenograft model; assay type: in vivo; settings: 10 mg/day, i.p., 3 weeks, BALB/c nude mice with MCF-7 tumors; FIG. 14A
Method: For the tumor growth inhibition study, female BALB/c nude mice (with supplemental 17-β estradiol) bearing MCF-7 tumors (mean tumor volume 211 mm^3) were i.p. treated with Accutar-153 (10 mg/day) in vehicle or by vehicle only for 3 weeks. Body weight and tumor volume (tumor volume=[length×width^2]/2) were monitored twice weekly. At the end of study, plasma, tumor tissues and organs (brain, liver, kidney) for each animal were collected for further analysis.
Female BALB/c nude mice (supplemented with 17-β estradiol) bearing MCF-7 tumors (mean tumor volume was 211 mm^3) were treated with the compound:
[drawing 197] (10 mg/day, i.p.) in vehicle, or by vehicle only, for 3 weeks. Body weight and tumor volume (tumor volume=[length×width^2]/2) were monitored twice weekly. At the end of study, plasma, tumor tissues and organs (brain, liver, kidney) for each animal were collected for further analysis. The tumor growth inhibition studies were performed twice.

Estrogen Receptor alpha = biological target: T1, Estrogen Receptor alpha (Homo sapiens, UniProt P03372); assay: Estrogen Receptor alpha degradation in MCF-7 cells (immunoblot, 20 hours); assay type: cell-based; settings: concentrations from 1 nM to 1 μM, FIGS. 3A and 3B
T1 construct: endogenous in cells; host or cells: MCF7 or LTED cells
T1 sequence (P03372 1-595): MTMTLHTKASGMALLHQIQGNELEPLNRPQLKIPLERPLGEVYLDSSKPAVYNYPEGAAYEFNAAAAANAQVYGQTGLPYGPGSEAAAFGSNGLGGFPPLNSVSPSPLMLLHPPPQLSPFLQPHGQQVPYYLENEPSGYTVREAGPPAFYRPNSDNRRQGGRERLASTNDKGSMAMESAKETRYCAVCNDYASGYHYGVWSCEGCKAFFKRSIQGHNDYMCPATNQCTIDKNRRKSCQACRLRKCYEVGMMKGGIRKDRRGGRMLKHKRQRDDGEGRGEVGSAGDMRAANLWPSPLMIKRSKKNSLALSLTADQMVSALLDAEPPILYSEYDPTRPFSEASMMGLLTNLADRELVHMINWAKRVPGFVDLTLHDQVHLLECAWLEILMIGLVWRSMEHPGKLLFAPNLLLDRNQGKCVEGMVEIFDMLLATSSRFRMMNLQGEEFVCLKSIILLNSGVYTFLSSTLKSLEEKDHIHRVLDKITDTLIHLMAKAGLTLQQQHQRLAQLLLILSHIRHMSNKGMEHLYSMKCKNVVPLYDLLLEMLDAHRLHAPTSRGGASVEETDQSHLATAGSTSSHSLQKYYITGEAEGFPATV
Method: MCF-7 cells were maintained in high glucose DMEM (Corning cellgro, 15-013-CM), supplemented with 10% FBS, 1× L-Glutamine (29.2 mg/mL) and 1× Penicillin Streptomycin (10,000 I.U./mL Penicillin; 10,000 μg/mL Streptomycin; Corning, 30-009-CI). The resulting MCF-7 cells were plated into a 24-well plate at 1×10^5 cells/well, and the following day, compound was added to the cell medium at various concentrations. After treating the cell medium with compound, the cell plates were incubated for 20 hours at 37° C. Upon cooling, cells were lysed by addition of SDS loading buffer. The resulting cell lysates were subjected to immunoblotting by standard protocol. with primary antibodies of mouse anti-human ERα monoclonal antibody (Santa Cruz Biotechnology Inc., #SC-8002) and 1:1000 goat anti-human actin polyclonal antibody (Santa Cruz Biotechnology Inc. #SC-1616). Western blot results visualized using picoLUCENT™ PLUS-HRP ECL (G Biosciences, 786-165) and LI-CORC digit imaging system.

CC/C(=C(\c1ccc(O)cc1)c1ccc(OCCNC(=O)CCCCCCC(=O)N[C@H](C(=O)N2C[C@H](O)C[C@H]2C(=O)NCc2ccc(-c3scnc3C)cc2)C(C)(C)C)cc1)c1ccccc1 was tested, and the “tumor weight, treatment group versus control group” value (MCF-7 tumors) was “significant decrease in tumor weight”.
With CC/C(=C(\c1ccccc1)c1ccc(OCCN(C)CCCCCCC(=O)N[C@H](C(=O)N2C[C@H](O)C[C@H]2C(=O)NCc2ccc(-c3scnc3C)cc2)C(C)(C)C)cc1)c1ccccc1 [Compound 4] the “degradation of Estrogen Receptor alpha compared with the control” value (Estrogen Receptor alpha) was “resulted in degradation of Estrogen Receptor alpha when compared with the control”.
